This note sets out measurements from ChEMBL document CHEMBL5665443, “Enzyme Inhibitor Single Concentration assay results for EUbOPEN Chemogenomics Library” (2024).

In assay [1] the target is Methyl-CpG-binding domain protein 4 (Homo sapiens) (UniProt O95243). The following applies: Compound Concentration 10.0 uM.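 Also: MBD4 activity read as fluorescence at 594 nm from cleavage and release of a quenched duplex DNA oligonucleotide, with APE1 coupled to incise the strand and raise turnover.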
Description: Inhibition of MBD4 by quantifying inhibition of MBD4-mediated cleavage and dissociation of quenched duplex DNA oligonucleotides, measured as fluorescence at 594 nm. To generate a functional strand incision and increase turn-over this assay is coupled to APE1.
Assay [2] concerns the target DNA-3-methyladenine glycosylase (Homo sapiens) (UniProt P29372). The following applies: Compound Concentration 10.0 uM, Hit No.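 Also: enzyme assay where MPG cuts a quenched duplex DNA oligonucleotide probe, paired with APE1 for strand incision and turnover, read as fluorescence at 594 nm.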
Description: Inhibition of MPG by quantifying inhibition of MPG-mediated cleavage and dissociation of quenched duplex DNA oligonucleotides, measured as fluorescence at 594 nm. To generate a functional strand incision and increase turn-over this assay is coupled to APE1.
Assay [3] addresses T1, Adenine DNA glycosylase (Homo sapiens) (UniProt Q9UIF7).
T1 sequence (whole entry): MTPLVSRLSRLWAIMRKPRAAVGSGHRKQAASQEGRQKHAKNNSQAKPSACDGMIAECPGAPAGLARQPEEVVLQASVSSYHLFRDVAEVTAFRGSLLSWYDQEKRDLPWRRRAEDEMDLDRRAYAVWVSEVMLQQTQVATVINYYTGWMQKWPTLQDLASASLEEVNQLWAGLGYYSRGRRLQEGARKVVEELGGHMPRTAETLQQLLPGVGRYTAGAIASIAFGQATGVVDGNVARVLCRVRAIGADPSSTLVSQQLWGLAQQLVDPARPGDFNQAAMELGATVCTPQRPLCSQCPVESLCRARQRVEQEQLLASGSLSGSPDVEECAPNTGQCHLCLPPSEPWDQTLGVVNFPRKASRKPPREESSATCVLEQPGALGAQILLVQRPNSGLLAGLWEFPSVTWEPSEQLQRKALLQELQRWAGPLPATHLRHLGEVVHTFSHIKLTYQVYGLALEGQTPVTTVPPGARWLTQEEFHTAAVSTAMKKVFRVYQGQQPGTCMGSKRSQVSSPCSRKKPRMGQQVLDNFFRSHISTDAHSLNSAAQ
The following applies: Compound Concentration 10.0 uM, Hit No.
Description: Inhibition of MUTYH by quantifying inhibition of MUTYH-mediated cleavage and dissociation of quenched duplex DNA oligonucleotides, measured as fluorescence at 594 nm. To generate a functional strand incision and increase turn-over this assay is coupled to APE1.

In assay [4] the target is Endonuclease 8-like 1 (Homo sapiens) (UniProt Q96FI4). The following applies: Compound Concentration 10.0 uM, Hit No.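 Also: fluorescence at 594 nm from quenched duplex DNA oligonucleotides released by NEIL1 cleavage and strand separation, reported as reduction of this enzyme activity.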
Chain of Endonuclease 8-like 1 (Homo sapiens) (Q96FI4 whole entry): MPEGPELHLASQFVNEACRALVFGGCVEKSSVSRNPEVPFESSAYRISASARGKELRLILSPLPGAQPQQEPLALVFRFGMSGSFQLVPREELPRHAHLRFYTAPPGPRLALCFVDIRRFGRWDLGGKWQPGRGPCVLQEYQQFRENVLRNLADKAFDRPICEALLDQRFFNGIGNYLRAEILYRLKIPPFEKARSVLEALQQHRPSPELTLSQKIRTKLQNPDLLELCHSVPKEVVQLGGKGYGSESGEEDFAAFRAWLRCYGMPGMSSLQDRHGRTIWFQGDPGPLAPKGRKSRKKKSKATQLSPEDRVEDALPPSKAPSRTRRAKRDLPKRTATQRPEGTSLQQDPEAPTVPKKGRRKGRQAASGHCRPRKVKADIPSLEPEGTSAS
Description: Inhibition of NEIL1 by quantifying inhibition of NEIL1-mediated cleavage and dissociation of quenched duplex DNA oligonucleotides, measured as fluorescence at 594 nm.
The target in assay [5] is T2, Endonuclease 8-like 2 (Homo sapiens) (UniProt Q969S2).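 Also: fluorescence at 594 nm reports NEIL2 cutting and release of a quenched double-stranded DNA oligo substrate, reduced signal read as inhibition.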
T2 sequence (whole entry): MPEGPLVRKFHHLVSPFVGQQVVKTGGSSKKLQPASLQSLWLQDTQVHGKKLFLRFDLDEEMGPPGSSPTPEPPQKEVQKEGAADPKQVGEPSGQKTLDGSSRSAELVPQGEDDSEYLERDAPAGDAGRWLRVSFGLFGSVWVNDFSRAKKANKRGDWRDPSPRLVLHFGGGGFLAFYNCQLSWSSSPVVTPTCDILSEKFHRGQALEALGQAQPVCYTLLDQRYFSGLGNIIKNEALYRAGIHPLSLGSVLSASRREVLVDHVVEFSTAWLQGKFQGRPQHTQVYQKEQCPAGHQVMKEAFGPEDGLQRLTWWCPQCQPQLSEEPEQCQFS
The following applies: Compound Concentration 10.0 uM, Hit No.
Description: Inhibition of NEIL2 by quantifying inhibition of NEIL2-mediated cleavage and dissociation of quenched duplex DNA oligonucleotides, measured as fluorescence at 594 nm.

For assay [6], the target named is T3, Endonuclease III-like protein 1 (Homo sapiens) (UniProt P78549).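 Also: enzyme assay tracking NTHL1 cutting and release of a quenched double-stranded DNA oligo substrate, read as fluorescence at 594 nm.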
T3 sequence (whole entry): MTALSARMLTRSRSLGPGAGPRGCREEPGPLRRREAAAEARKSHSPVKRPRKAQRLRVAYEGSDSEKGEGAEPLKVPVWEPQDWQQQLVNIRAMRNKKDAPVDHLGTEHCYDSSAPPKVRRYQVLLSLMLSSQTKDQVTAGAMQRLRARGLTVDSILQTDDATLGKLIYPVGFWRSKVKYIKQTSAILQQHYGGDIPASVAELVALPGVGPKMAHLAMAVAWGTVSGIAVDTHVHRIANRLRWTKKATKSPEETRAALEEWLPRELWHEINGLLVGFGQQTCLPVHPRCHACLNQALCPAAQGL
The following applies: Compound Concentration 10.0 uM.
Description: Inhibition of NTHL1 by quantifying inhibition of NTHL1-mediated cleavage and dissociation of quenched duplex DNA oligonucleotides, measured as fluorescence at 594 nm.

The target of assay [7] is N-glycosylase/DNA lyase (Homo sapiens) (UniProt O15527). The following applies: Compound Concentration 10.0 uM.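 Also: OGG1 cleavage of a quenched duplex DNA oligonucleotide, coupled to APE1 for strand incision, read as fluorescence at 594 nm.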
Chain of N-glycosylase/DNA lyase (Homo sapiens) (O15527 whole entry): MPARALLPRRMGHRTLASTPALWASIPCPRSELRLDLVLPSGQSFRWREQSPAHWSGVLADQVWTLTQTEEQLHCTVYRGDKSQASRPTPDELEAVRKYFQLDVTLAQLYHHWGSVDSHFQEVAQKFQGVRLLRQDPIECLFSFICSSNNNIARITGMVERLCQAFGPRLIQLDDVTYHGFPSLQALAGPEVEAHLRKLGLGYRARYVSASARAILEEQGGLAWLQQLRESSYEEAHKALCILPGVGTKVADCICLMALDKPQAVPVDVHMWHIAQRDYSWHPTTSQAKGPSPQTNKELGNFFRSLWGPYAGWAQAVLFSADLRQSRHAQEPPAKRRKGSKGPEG
Description: Inhibition of OGG1 by quantifying inhibition of OGG1-mediated cleavage and dissociation of quenched duplex DNA oligonucleotides, measured as fluorescence at 594 nm. To generate a functional strand incision and increase turn-over this assay is coupled to APE1.
Assay [8] concerns the target T4, Single-strand selective monofunctional uracil DNA glycosylase (Homo sapiens) (UniProt Q53HV7).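 Also: enzymatic SMUG1 assay coupled with APE1, reading fluorescence at 594 nm released when a quenched double-stranded DNA oligonucleotide substrate is cleaved and separated.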
T4 sequence (whole entry): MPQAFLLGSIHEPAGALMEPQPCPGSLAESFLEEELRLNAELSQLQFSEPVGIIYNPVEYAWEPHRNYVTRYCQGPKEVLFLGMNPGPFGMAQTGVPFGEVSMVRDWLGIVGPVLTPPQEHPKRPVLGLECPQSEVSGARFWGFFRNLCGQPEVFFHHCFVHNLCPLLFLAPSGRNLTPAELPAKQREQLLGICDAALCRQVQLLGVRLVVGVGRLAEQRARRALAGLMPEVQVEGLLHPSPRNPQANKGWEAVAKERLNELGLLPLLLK
The following applies: Compound Concentration 10.0 uM.
Description: Inhibition of SMUG1 by quantifying inhibition of SMUG1-mediated cleavage and dissociation of quenched duplex DNA oligonucleotides, measured as fluorescence at 594 nm. To generate a functional strand incision and increase turn-over this assay is coupled to APE1.

In assay [9] the target is G/T mismatch-specific thymine DNA glycosylase (Homo sapiens) (UniProt Q13569). The following applies: Compound Concentration 10.0 uM.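 Also: human TDG cleavage of quenched duplex DNA oligonucleotides coupled to APE1, strand release read as fluorescence at 594 nm, inhibition of TDG activity.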
Chain of G/T mismatch-specific thymine DNA glycosylase (Homo sapiens) (Q13569 whole entry): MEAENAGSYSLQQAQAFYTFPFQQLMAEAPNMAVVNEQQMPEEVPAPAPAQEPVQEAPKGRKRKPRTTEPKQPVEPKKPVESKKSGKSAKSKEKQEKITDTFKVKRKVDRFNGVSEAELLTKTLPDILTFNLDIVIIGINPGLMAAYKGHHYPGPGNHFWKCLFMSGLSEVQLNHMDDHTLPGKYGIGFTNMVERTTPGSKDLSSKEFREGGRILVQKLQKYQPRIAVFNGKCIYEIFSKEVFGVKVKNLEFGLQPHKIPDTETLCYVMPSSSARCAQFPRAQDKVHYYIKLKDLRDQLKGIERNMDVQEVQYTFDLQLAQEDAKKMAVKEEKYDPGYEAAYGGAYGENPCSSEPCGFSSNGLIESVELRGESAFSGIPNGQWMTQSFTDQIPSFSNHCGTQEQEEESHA
Description: Inhibition of TDG by quantifying inhibition of TDG-mediated cleavage and dissociation of quenched duplex DNA oligonucleotides, measured as fluorescence at 594 nm. To generate a functional strand incision and increase turn-over this assay is coupled to APE1.
The target of assay [10] is Uracil-DNA glycosylase (Homo sapiens) (UniProt P13051). The following applies: Compound Concentration 10.0 uM, Hit No.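 Also: UNG excision on a quenched double-stranded DNA oligo probe, with APE1 added for strand incision and turnover, read as fluorescence at 594 nm as strands separate.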
Chain of Uracil-DNA glycosylase (Homo sapiens) (P13051 whole entry): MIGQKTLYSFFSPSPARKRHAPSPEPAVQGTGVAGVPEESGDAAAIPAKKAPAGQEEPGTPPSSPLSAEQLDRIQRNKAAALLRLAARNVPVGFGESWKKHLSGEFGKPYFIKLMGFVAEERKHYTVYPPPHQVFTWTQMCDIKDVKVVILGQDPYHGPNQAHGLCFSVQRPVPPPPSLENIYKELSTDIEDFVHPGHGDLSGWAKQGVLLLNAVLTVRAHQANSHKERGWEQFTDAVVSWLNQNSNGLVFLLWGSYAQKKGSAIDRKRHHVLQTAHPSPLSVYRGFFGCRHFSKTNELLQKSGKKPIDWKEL
Description: Inhibition of UNG by quantifying inhibition of UNG-mediated cleavage and dissociation of quenched duplex DNA oligonucleotides, measured as fluorescence at 594 nm. To generate a functional strand incision and increase turn-over this assay is coupled to APE1.

SMILES strings stand for the structures.

Chain of Methyl-CpG-binding domain protein 4 (Homo sapiens) (O95243 whole entry, the tested form may be a part): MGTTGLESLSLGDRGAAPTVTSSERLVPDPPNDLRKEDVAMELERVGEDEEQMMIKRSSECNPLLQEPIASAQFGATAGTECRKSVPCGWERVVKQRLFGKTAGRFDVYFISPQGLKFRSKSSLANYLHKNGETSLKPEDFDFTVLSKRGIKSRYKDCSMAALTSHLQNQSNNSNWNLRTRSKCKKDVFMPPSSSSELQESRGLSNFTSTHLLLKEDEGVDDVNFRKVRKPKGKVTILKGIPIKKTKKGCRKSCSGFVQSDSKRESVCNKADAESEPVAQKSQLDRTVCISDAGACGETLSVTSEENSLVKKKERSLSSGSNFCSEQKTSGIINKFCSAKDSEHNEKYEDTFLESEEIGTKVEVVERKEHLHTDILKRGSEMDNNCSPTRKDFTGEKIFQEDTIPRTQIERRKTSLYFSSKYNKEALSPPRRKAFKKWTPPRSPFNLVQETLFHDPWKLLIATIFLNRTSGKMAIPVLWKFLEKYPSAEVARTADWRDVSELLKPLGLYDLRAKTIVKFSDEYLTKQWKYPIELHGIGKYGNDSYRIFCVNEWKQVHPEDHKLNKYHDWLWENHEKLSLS
Chain of DNA-3-methyladenine glycosylase (Homo sapiens) (P29372 whole entry): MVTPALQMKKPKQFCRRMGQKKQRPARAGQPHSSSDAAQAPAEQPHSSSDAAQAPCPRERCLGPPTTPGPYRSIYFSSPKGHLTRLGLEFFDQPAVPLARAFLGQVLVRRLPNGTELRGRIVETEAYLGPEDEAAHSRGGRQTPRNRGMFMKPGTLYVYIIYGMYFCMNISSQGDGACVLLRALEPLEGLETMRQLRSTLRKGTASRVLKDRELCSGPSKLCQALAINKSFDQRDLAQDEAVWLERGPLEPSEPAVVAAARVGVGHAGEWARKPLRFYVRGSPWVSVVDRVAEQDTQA

One may read the inhibition as the drop in the measured response relative to a control, in per cent. Turning to `O=C(NS(=O)(=O)N1CCC1)c1cc(C2CC2)c(OCC23CC4CC(CC(C4)C2)C3)cc1F`, the inhibition in [1] (Hit Yes) was determined as 87.3%; in assay [2], 60.8%; in assay [3], 93%; in [4], 7.57%; in assay [5], 17.5%; in assay [6] (Hit Yes), 56.7%. Moreover, the inhibition amounted to 93.6% in assay [7] (Hit Yes), 98.5% in assay [8] (Hit Yes), 79.6% in assay [9] (Hit Yes) and 7.9% in assay [10].

For the compound `COc1c(C(=O)/C=C/c2ccccc2)c(O)c(OC)c2occc12`, the inhibition in [1] (Hit No) was 19.3%; in assay [2], 7.88%; in assay [3] it was 19.8%; in assay [4], -0.435%; in assay [5], -3.15%; in [6] (Hit No), 20.4%. In addition, the inhibition in assay [7] (Hit No) was 0.34%; in assay [8] (Hit No) it was 3.49%; in [9] (Hit No) it was 11%; in assay [10], -2.63%.

For `CCc1nc2c(o1)CC(c1ccc(C)cc1C)CC2=O` (stereo not given), the inhibition was 17.2% in assay [1] (Hit No); 23.6% in assay [2]; -1.84% in [3]; 6.08% in assay [4]; 6.53% in assay [5]; -4.39% in assay [6] (Hit No). For the same compound, the inhibition in [7] (Hit No) was -9.46%; in [8] (Hit No), 5.18%; in [9] (Hit No) it was 16.4%; in assay [10], 0.136%.

Take `CC1(C)CN2C(CS/C(=N\C3CCCCC3)NC3CCCCC3)=CSC2=N1`: the inhibition in assay [1] (Hit No) was 7.88%; in assay [2], 8.86%; in assay [3], 4.05%; in assay [4] it was 6.38%; in assay [5], -0.86%; in assay [6] (Hit No), 11.3%. The inhibition in [7] (Hit No) is 5.96%; in assay [8] (Hit No) it was -4.87%; in assay [9] (Hit No) it was -0.781%; in assay [10] it was -3.07%.

As to `COC[C@H](O)Cn1c(=O)cnn(-c2ccc(Cl)c(C(=O)NCC3(O)CCCCCC3)c2)c1=O`, the inhibition in assay [1] (Hit No) was 2.28%; in assay [2] it was 19.8%; in assay [3], 7.26%; in assay [4], 1.64%; in assay [5], -2.64%; in [6] (Hit No), -8.51%. For the same compound, the inhibition in assay [7] (Hit No) is -7.67%; in [8] (Hit No), -5.5%; in assay [9] (Hit No), 9.08%; in [10], -3.13%.

`O=C(O)Cn1c(C(=O)Nc2nc(-c3ccccc3Cl)cs2)cc2ccccc21`: the inhibition in assay [1] (Hit No) is 38.1%; in [2] it was 17.4%; in [3], 40.1%; in assay [4], -4.5%; in [5] it was 0.265%; in assay [6] (Hit No), -9.07%. The inhibition was 6.47% in assay [7] (Hit No), 5.06% in assay [8] (Hit No), 39.6% in assay [9] (Hit No) and -4.79% in assay [10].

In the case of `Cc1nn(C)c2nc(NNC(=O)Nc3cc(Cl)nc(Cl)c3)cc(C(C)C)c12`, the inhibition in assay [1] (Hit No) is -2.58%; in assay [2] it was -8%; in assay [3] it was 28.9%; in [4], -1.83%; in assay [5] it was 7.5%; in assay [6] (Hit No) it was 4.12%. The inhibition in assay [7] (Hit No) was -2.44%; in assay [8] (Hit No), 4.42%; in [9] (Hit No) it was 16.6%; in assay [10], -4.71%.

Turning to `N=C(N)NCCSC(=N)N`, the inhibition is 16.4% in assay [1] (Hit No); -0.668% in assay [2]; -5.42% in assay [3]; -7.55% in assay [4]; -9.52% in assay [5]; -1.08% in [6] (Hit No). Further, the inhibition in assay [7] (Hit No) is -4.9%; in assay [8] (Hit No), -6.96%; in assay [9] (Hit No), 8.29%; in [10], -5.32%.

Take `COc1ccc(-c2csc(NC(=O)[C@H]3CCCCN3S(=O)(=O)c3ccc(C)cc3)n2)cc1`: the inhibition in assay [1] (Hit No) is 10.3%; in [2], 12%; in assay [3] it was 11.1%; in [4], 4.6%; in assay [5], 3.47%; in assay [6] (Hit No) it was 22%. Further, the inhibition is -5.94% in [7] (Hit No), 12.1% in assay [8] (Hit No), 5.87% in assay [9] (Hit No) and -6.47% in assay [10].

For the compound `CCCCC[C@H](O)/C=C/[C@H]1CCC(=O)[C@@H]1CCCCCCC(=O)O`, the inhibition in assay [1] (Hit No) came out at 17.3%; in assay [2], 6.97%; in [3], 15.9%; in assay [4] it was 1.28%; in [5], 4.01%; in [6] (Hit No), 1.19%. Also, the inhibition in assay [7] (Hit No) is 3.78%; in [8] (Hit No) it was -3.08%; in [9] (Hit No), 11.4%; in assay [10] it was -4.12%.

In the case of `CCc1cc(C(C)=O)c(O)cc1OCCCCCC(C)(C)c1nn[nH]n1`, the inhibition in [1] (Hit No) is 24%; in [2], 13%; in assay [3], 7.7%; in assay [4] it was -0.204%; in assay [5], -8.97%; in assay [6] (Hit No) it was 9.99%. Also, the inhibition in assay [7] (Hit No) is 16.1%; in assay [8] (Hit No) it was 0.79%; in assay [9] (Hit No) it was 21.1%; in assay [10], -4.34%.

With `CC(C)c1cc(Br)c(NC(=O)Nc2cccnc2)c(Br)c1`, the inhibition was 12.5% in assay [1] (Hit No); 14.7% in [2]; 0.0238% in [3]; 3.27% in assay [4]; 7.55% in assay [5]; -2.73% in assay [6] (Hit No). The inhibition is -2.73% in assay [7] (Hit No), -3.86% in [8] (Hit No), 19.7% in assay [9] (Hit No) and -2.82% in assay [10].

With `NC(=O)NN=Cc1ccc(Oc2ccc(F)cc2)cc1`, the inhibition is -2.63% in assay [1] (Hit No); 2.76% in [2]; 8.22% in assay [3]; 9.49% in [4]; -3.41% in [5]; 0.568% in [6] (Hit No). Further, the inhibition in [7] (Hit No) is -9.24%; in assay [8] (Hit No), -4.59%; in [9] (Hit No), 11.3%; in assay [10], -5.79%.

As to `NCCc1c[nH]c2ccc(O)cc12`, the inhibition was -6.88% in [1] (Hit No); 21.8% in assay [2]; 2.2% in assay [3]; 5.88% in assay [4]; 9.75% in assay [5]; 1.92% in [6] (Hit No). The inhibition was -2.75% in [7] (Hit No), -6.38% in assay [8] (Hit No), 20.7% in assay [9] (Hit No) and -8.18% in [10].

Regarding `CCCCCN1C(=O)C2(COc3cc4c(cc32)OCO4)c2ccccc21` (stereo not given), the inhibition in assay [1] (Hit No) came to 29%; in assay [2] it was 32.6%; in assay [3], 13.2%; in assay [4], 0.00926%; in assay [5], 0.924%; in assay [6] (Hit No), 18.7%. Also, the inhibition was 1.71% in [7] (Hit No), -6.34% in [8] (Hit No), 18.1% in [9] (Hit No) and -5.87% in assay [10].
